Experimental data published in patent US11471481B2, “Rapid-deposition thin-film forming compositions as effective wound care treatment” (priority 2016, dated 2022).
Like-named read-outs stand apart in the source and are kept apart here.

Key:
[1] = Solubility of PVP-I in different organic solvents; type: physicochemical
Experimental: PVP-I is a polymer complex soluble in water.
To make PVP-I liquid bandage solutions to form rapid-deposition film on skin surface, low boiling-point volatile solvents were selected to study solubility of PVP-I and the time required for the solvent to evaporate to dryness. […] When ethanol alone was the solvent, the drying time was 3 minutes 27 seconds. A mixed solvent has even shorter drying time. Particularly, when the mixed solvent contains acetone and isopentane (which have low boiling points), drying time had been shortened to less than 2 minutes, as the mixed solvents could form azeotropes, which was easier to evaporate. Isopentane had some irritation to skin, and thus its dosage could not be too high. From the study, dosage greater than 15% of isopentane could not shorten the drying time, but instead increase the skin irritation. n-Pentane is not used because of its pungent smell. Therefore, after a preliminary study, ethanol, ethyl acetate, acetone and isopentane alone or combinations were chosen as the solvent phase in this invention.

human skin fibroblast = details: cited from earlier work

Substance: Povidone iodine [PVP-I]
- Solubility of PVP-I in ethanol ([1]; ethanol): readily soluble
- Solubility of PVP-I in ethyl acetate, acetone, isopentane and n-pentane ([1]; ethyl acetate, acetone, isopentane, n-pentane): insoluble
- Fibroblast growth (human skin fibroblast; 0.01% and 0.025% PVP-I solutions): progressively retarded
- Fibroblast growth (human skin fibroblast; 0.1% and 1% PVP-I solutions): totally inhibited
